Reference: patent US20260364057A1, “AMIDE COMPOUND, AND COMPOSITION AND USE THEREOF” (SIMCERE ZAIMING PHARMACEUTICAL CO., LTD., priority 2022, published 2026)

Each molecule was assayed on OVCAR3 cells (assay: Inhibition of proliferation of OVCAR-3 cells (Cell-Titer Glo)). Details: Homo sapiens, OVCAR-3, 72 h, 3 days, 1000 cells/well.
Assay type: cell-based
Excerpt: Test Example 2. Test on Inhibition of Proliferation of OVCAR-3 Cells by Compounds of Present Disclosure
Cell and material: The human ovarian cancer cell line OVCAR3 was purchased from ATCC (Cat. No. HTB-161™), RPMI 1640 medium (Gibco #A1049101), penicillin-streptomycin (Gibco #15140122), and 0.25% Trypsin-EDTA (Gibco #25200056) were purchased from Gibco (U.S.), bovine insulin (Yeasen #40107ES60) was purchased from Yeasen, 384-well plates (Corning #CLS3765) was purchased from Corning (U.S.), and Cell-Titer Glo reagent (Promega #G7568) was purchased from Promega (U.S.).
Cell culture: OVCAR3 cells were cultured in RPMI 1640 complete medium (RPMI 1640 medium containing 20% fetal bovine serum, […] bovine insulin, and 1% penicillin-streptomycin) in an incubator (37 °C, 5% CO2), and the cells could be used in experiments when in the logarithmic growth phase.
Cell proliferation activity test: The Cell-Titer Glo reagent was used to test the compound for inhibition of proliferation of the OVCAR3 cell strain. The compound formulated with DMSO and pure DMSO (control) were each added to a 384-well plate using an Echo instrument; the compound was subjected to 3-fold serial dilution starting from 30 μM to obtain 11 concentration points, and the volume of the compound or DMSO added was 100 nL.
OVCAR3 cells were digested and resuspended in RPMI 1640 complete medium, and the suspension was added to a 384-well plate (1000 cells/50 μL/well) to be well mixed with the compound. The mixture was incubated in an incubator (37 °C, 5% CO2) for 3 days. The Cell-Titer Glo reagent was added at 25 µL/well, and the resulting mixture was well mixed by shaking and then incubated for 10 min. The Cell-Titer Glo readings were measured with a Multimode Plate Reader (brand: PerkinElmer; model: SIC-PV-018).
A negative control group (Bottom) was set, and the negative control group was medium wells with 0.2% DMSO added and was defined as 100% proliferation inhibition; the positive control group (Top) was OVCAR3 cell wells with 0.2% DMSO added.
The percent proliferation inhibition (% Inhibition) was calculated, and the curves were fit using the four-parameter equation, Y=Bottom+(Top−Bottom)/(1+(IC50/X)^HillSlope), to obtain the proliferation inhibition IC50 of the compound. • Percent inhibition: % Inhibition=(1−(Signal−Bottom)/(Top−Bottom))×100%. • Signal: Cell-Titer Glo reading of wells with compound added; • Bottom: Cell-Titer Glo reading of negative control wells; • Top: Cell-Titer Glo reading of positive control wells.
`O=C(Nc1cc2c(c(N3CCC(F)(F)CC3)c1)OCCC2)c1ccc(NS(=O)(=O)CCO)cc1N1CCC2(CC1)CC2` [Compound 60] gave an IC50 of 11 nM.
With `O=C(Nc1cccc2c1nc1n2CCCCCC1)c1ccc(NS(=O)(=O)CCO)cc1N1CCC2(CC1)CC2` [Compound 61] the IC50 was 77 nM.
Work on `O=C(Nc1cccc2c3c(nn12)CCCCC3)c1ccc(NS(=O)(=O)CCO)cc1N1CCC2(CC1)CC2` [Compound 64] yielded an IC50 of 65.7 nM.
For `O=C(Nc1cc2c(c(N3CCC(F)(F)CC3)n1)OCC2)c1ccc(NS(=O)(=O)CCO)cc1N1CCC2(CC1)CC2` [Compound 65], the IC50 was 16.7 nM.
For `O=C(Nc1cc2c(c(N3CCC(F)(F)CC3)n1)COC2)c1ccc(NS(=O)(=O)CCO)cc1N1CCC2(CC1)CC2` [Compound 67], the IC50 was 70 nM.
`CC1CCCCc2nc3c(NC(=O)c4ccc(NS(=O)(=O)CCO)cc4N4CCC5(CC4)CC5)cccc3n21` (centres unmarked) [Compound 68] showed an IC50 of 41.6 nM.
Work on `O=C(Nc1cccc2c1nc1n2CC2CC2C1)c1ccc(NS(=O)(=O)CCO)cc1N1CCC2(CC1)CC2` (centres unmarked) [Compound 70] yielded an IC50 of 93.3 nM.
`O=C(Nc1cccc2c1nc1n2CCC2CC12)c1ccc(NS(=O)(=O)CCO)cc1N1CCC2(CC1)CC2` (centres unmarked) [Compound 71] gave an IC50 of 94.2 nM.
With `O=C(Nc1cccc2c1nc1n2C2CCC1C2)c1ccc(NS(=O)(=O)CCO)cc1N1CCC2(CC1)CC2` (centres unmarked) [Compound 72] the IC50 was 57.3 nM.
`CCS(=O)(=O)Nc1ccc(C(=O)Nc2cc3c(c(N4CCC(F)(F)CC4)c2)CCC3)c(N2CCC3(CC2)CC3)c1` [Compound 73] was tested, and the IC50 was 38 nM.
`O=C(Nc1cccc2c1nc1n2CC2CCC1C2(F)F)c1ccc(NS(=O)(=O)CCO)cc1N1CCC2(CC1)CC2` (centres unmarked) [Compound 74] was tested, and the IC50 was 24 nM.
`O=C(Nc1cccc2c1nc1n2CC(C(F)(F)F)C1)c1ccc(NS(=O)(=O)CCO)cc1N1CCC2(CC1)CC2` (centres unmarked) [Compound 76] showed an IC50 of 43.1 nM.
With `O=C(Nc1cccc2c1nc1n2C2CCC1OC2)c1ccc(NS(=O)(=O)CCO)cc1N1CCC2(CC1)CC2` (centres unmarked) [Compound 77] the IC50 was 25.4 nM.
In the case of `O=C(Nc1cccc2c3n(nc12)CCCCC3)c1ccc(NS(=O)(=O)CCO)cc1N1CCC2(CC1)CC2` [Compound 78], the IC50 is reported as 45.3 nM.
For `O=C(Nc1cc(N2CCC(F)(F)CC2)c2nccn2c1)c1ccc(NS(=O)(=O)CCO)cc1N1CCC2(CC1)CC2` [Compound 80], the IC50 was 24 nM.
With `O=C(Nc1cc(N2CCC(F)(F)CC2)n2nccc2c1)c1ccc(NS(=O)(=O)CCO)cc1N1CCC2(CC1)CC2` [Compound 81] the IC50 was 18.2 nM.

What follows are molecules tested against T1, Human KIF18A (1-376aa) (Homo sapiens, UniProt Q8NI77) (assay: KIF18A enzyme activity assay (ADP-Glo)). Details: microtubule 50 μg/mL, ATP (Km 70 μM), room temperature, 15 min, read-out: KIF18A inhibitory activity IC50.
T1 construct: Human KIF18A (1-376aa) protease used in the experiments; purchased Shanghai Panchao Biotechnology Co., Ltd
T1 sequence (Q8NI77 1-376): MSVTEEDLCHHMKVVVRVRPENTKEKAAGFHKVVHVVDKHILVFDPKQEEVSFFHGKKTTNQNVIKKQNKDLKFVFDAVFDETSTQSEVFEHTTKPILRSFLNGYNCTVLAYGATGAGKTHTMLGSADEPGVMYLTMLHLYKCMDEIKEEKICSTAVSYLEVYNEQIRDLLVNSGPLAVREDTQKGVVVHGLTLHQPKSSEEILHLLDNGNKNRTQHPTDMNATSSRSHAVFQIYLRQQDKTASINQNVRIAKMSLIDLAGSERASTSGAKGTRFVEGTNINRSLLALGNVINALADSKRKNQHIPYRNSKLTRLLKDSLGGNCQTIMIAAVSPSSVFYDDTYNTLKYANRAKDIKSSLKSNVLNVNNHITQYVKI
Assay type: biochemical
Procedure: Test Example 1: KIF18A Enzyme Activity Assay
Based on the ADP-Glo™ Kinase Assay, the ADP amount generated in the reaction was detected to reflect the enzyme activity of KIF18A.
Human KIF18A (1-376aa) […] used in the experiments, expressed by Shanghai Panchao Biotechnology Co., Ltd., was stored at −80 °C (no more than 5 freeze-thaw cycles).
The assay kit (ADP-Glo™ Kinase Assay) was purchased from Promega (Cat. No. V9101) and stored at −30 °C. The kit detects the enzyme activity by measuring ADP generated in enzyme reaction. The KIF18A enzyme and ATP generate ADP. The remaining ATP in this reaction is consumed by the ADP-Glo reagent, while the ADP generated by the KIF18A enzyme reaction is converted back to ATP by the assay reagent. The ATP then reacts with luciferin in the presence of Ultra-Glo™ luciferase, producing luminescence. The luminescent signal is positively correlated with the activity of the KIF18A enzyme.
Compounds were each subjected to 3-fold serial dilution starting from 10 μM to obtain 10 concentration points. The compounds and pure DMSO (control) were pipetted into wells of a 384-well plate using an Echo instrument, and the total volume of compound and DMSO was 100 nL; sample concentrations of gradient dilution were obtained by the instrument based on different ratios. Preparation of a KIF18A enzyme reaction buffer: […], 10 mM MgCl2, 0.01% Pluronic F-68, 1 μM Taxol, and 50 μg/mL Microtubule. KIF18A and the enzyme reaction buffer were mixed, and then the mixed solution was added to the 384-well plate and incubated at room temperature for 15 min. ATP (Km 70 μM) was then added to the mixed solution, and the mixed solution was incubated at room temperature for 15 min. 10 μL of ADP-Glo™ Reagent was well mixed with 10 μL of the mixed solution, and the mixture was incubated at room temperature for 40 min. Finally, 20 μL of ADP-Glo™ Detection Reagent was added, and the mixture was incubated at room temperature for 30 min. The chemiluminescent signal in each well was measured using an Envision plate reader (PerkinElmer, emission wavelength: 400-700 nm). In the experiment, 1 column of wells with no compound and no enzyme (chemiluminescence value was taken as [RLU]background) and 1 column of wells with enzyme but no compound (chemiluminescence value was taken as [RLU]enzyme) were provided. The chemiluminescence value of the compound adding group was taken as [RLU]cpd. The inhibition rate of the compound on […] was calculated according to the following equation: inhibition rate (%)=([RLU]enzyme−[RLU]cpd)/([RLU]enzyme−[RLU]background)×100%, and the inhibitory activity IC50 value of the compound on the enzyme activity was calculated using a four-parameter Logistic Model method. In the following equation, x represents the logarithmic form of the concentration of compound, and f (x) represents an effect value (inhibition rate of enzyme activity at the concentration): F(x)=(A+((B−A)/(1+((C/x)^D)))). A. B, C, and D are four parameters.
Work on `O=C(Nc1cc2c(c(N3CCC(F)(F)CC3)c1)OCCC2)c1ccc(NS(=O)(=O)CCO)cc1N1CCC2(CC1)CC2` [Compound 60] yielded an IC50 of under 200 nM.
`O=C(Nc1cccc2c1nc1n2CCCCCC1)c1ccc(NS(=O)(=O)CCO)cc1N1CCC2(CC1)CC2` [Compound 61] gave an IC50 of under 200 nM.
`O=C(Nc1cccc2c3c(nn12)CCCCC3)c1ccc(NS(=O)(=O)CCO)cc1N1CCC2(CC1)CC2` [Compound 64] gave an IC50 of under 200 nM.
`O=C(Nc1cc2c(c(N3CCC(F)(F)CC3)n1)OCC2)c1ccc(NS(=O)(=O)CCO)cc1N1CCC2(CC1)CC2` [Compound 65] showed an IC50 of under 500 nM.
For `O=C(Nc1cc2c(c(N3CCC(F)(F)CC3)n1)COC2)c1ccc(NS(=O)(=O)CCO)cc1N1CCC2(CC1)CC2` [Compound 67], the IC50 was under 200 nM.
For `CC1CCCCc2nc3c(NC(=O)c4ccc(NS(=O)(=O)CCO)cc4N4CCC5(CC4)CC5)cccc3n21` (centres unmarked) [Compound 68], the IC50 was under 200 nM.
`O=C(Nc1cccc2c1nc1n2CC2CC2C1)c1ccc(NS(=O)(=O)CCO)cc1N1CCC2(CC1)CC2` (centres unmarked) [Compound 70] was tested, and the IC50 was under 200 nM.
`O=C(Nc1cccc2c1nc1n2CCC2CC12)c1ccc(NS(=O)(=O)CCO)cc1N1CCC2(CC1)CC2` (centres unmarked) [Compound 71] showed an IC50 of under 200 nM.
`O=C(Nc1cccc2c1nc1n2C2CCC1C2)c1ccc(NS(=O)(=O)CCO)cc1N1CCC2(CC1)CC2` (centres unmarked) [Compound 72] was tested, and the IC50 was under 200 nM.
In the case of `CCS(=O)(=O)Nc1ccc(C(=O)Nc2cc3c(c(N4CCC(F)(F)CC4)c2)CCC3)c(N2CCC3(CC2)CC3)c1` [Compound 73], the IC50 is reported as under 200 nM.
Work on `O=C(Nc1cccc2c1nc1n2CC2CCC1C2(F)F)c1ccc(NS(=O)(=O)CCO)cc1N1CCC2(CC1)CC2` (centres unmarked) [Compound 74] yielded an IC50 of under 200 nM.
With `O=C(Nc1cccc2c1nc1n2CC(C(F)(F)F)C1)c1ccc(NS(=O)(=O)CCO)cc1N1CCC2(CC1)CC2` (centres unmarked) [Compound 76] the IC50 was under 200 nM.
`O=C(Nc1cccc2c1nc1n2C2CCC1OC2)c1ccc(NS(=O)(=O)CCO)cc1N1CCC2(CC1)CC2` (centres unmarked) [Compound 77] gave an IC50 of under 200 nM.
`O=C(Nc1cccc2c3n(nc12)CCCCC3)c1ccc(NS(=O)(=O)CCO)cc1N1CCC2(CC1)CC2` [Compound 78] was tested, and the IC50 was under 200 nM.
`O=C(Nc1cc(N2CCC(F)(F)CC2)c2nccn2c1)c1ccc(NS(=O)(=O)CCO)cc1N1CCC2(CC1)CC2` [Compound 80] gave an IC50 of under 200 nM.
`O=C(Nc1cc(N2CCC(F)(F)CC2)n2nccc2c1)c1ccc(NS(=O)(=O)CCO)cc1N1CCC2(CC1)CC2` [Compound 81] showed an IC50 of under 200 nM.
